The source of these data is patent US20240042015A1 (Orna Therapeutics, Inc., priority 2020, published 2024).

The subject of experiment [1] is CD-1 or c57BL/6J mice. The experiment in a line: In vivo IVIS analysis of FLuc circRNA LNPs (whole body and ex vivo organs). As to conditions: for spleen to liver ratios: ex vivo IVIS analysis of tissues. As for the experimental part:
Lipid Nanoparticles (LNPs) were formed using a Precision Nanosystems Ignite instrument with a ‘NextGen’ mixing chamber. […] A 3:1 aqueous to ethanol mixing ratio was used. The formulated LNP then were dialyzed in 1 L of water and exchanged 2 times over 18 hours. Dialyzed LNPs were filtered using 0.2 µm filter. Prior to in vivo dosing, LNPs were diluted in PBS. LNP sizes were determined by dynamic light scattering. A cuvette with 1 mL of 20 μg/mL LNPs in PBS (pH 7.4) was measured for Z-average using the Malvern Panalytical Zetasizer Pro. The Z-average and polydispersity index were recorded.
Lipid Nanoparticles (LNPs) were formed using a Precision Nanosystems Ignite instrument with a ‘NextGen’ mixing chamber. […] A 3:1 aqueous to ethanol mixing ratio was used. The formulated LNPs were then dialyzed in 1 L of water and exchanged 2 times over 18 hours. Dialyzed LNPs were filtered using 0.2 µm filter. Prior to in vivo dosing, LNPs were diluted in PBS. LNP sizes were determined by dynamic light scattering. A cuvette with 1 mL of 20 μg/mL LNPs in PBS (pH 7.4) was measured for Z-average using the Malvern Panalytical Zetasizer Pro. The Z-average and polydispersity index were recorded.
Lipid Nanoparticles (LNPs) were formed using a Precision Nanosystems Ignite instrument with a ‘NextGen’ mixing chamber. […] A 3:1 aqueous to ethanol mixing ratio was used. The formulated LNPs were then dialyzed in 1 L of 1×PBS and exchanged 2 times over 18 hours. Dialyzed LNPs were filtered using 0.2 µm filter. Prior to in vivo dosing, LNPs were diluted in PBS. LNP sizes were determined by dynamic light scattering. A cuvette with 1 mL of 20 μg/mL LNPs in PBS (pH 7.4) was measured for Z-average using the Malvern Panalytical Zetasizer Pro. The Z-average and polydispersity index were recorded.
Female CD-1 or female c57BL/6J mice ranging from 22-25 g were dosed at 0.5 mg/kg RNA intravenously. Six hours after injection, mice were injected intraperitoneally with 200 μL of D-luciferin at 15 mg/mL concentration. 5 minutes after injection, mice were anesthetized using isoflurane, and placed inside the IVIS Spectrum In Vivo Imaging System (Perkin Elmer) with dorsal side up. Post 10 minutes injection, mice were scanned for luminescence. Mice were euthanized and organs were extracted within 25 minutes of luciferin injection to scan for luminescence in liver, spleen, kidneys, lungs, and heart. Images (FIGS. 33A-B, 34A-B, 35A-B) were analyzed using Living Images (Perkin Elmer) software. Regions of interest were drawn to obtain flux and average radiance and analyzed for biodistribution of protein expression (FIG. 32A-B).

The subject of experiment [2] is splenic immune cells. The experiment is described as follows: In vivo Cre circRNA LNP transfection in Ai9 Cre reporter mice, tdTomato+ splenic immune cells. The following applies: 0.5 mg/kg RNA intravenously, 48 hr. As for the experimental part: Circular RNAs encoding Cre recombinase (Cre) are encapsulated into lipid nanoparticles as previously described. Female, 6-8 week old B6.Cg-Gt(ROSA)26Sortm9(CAG-tdTomato)Hze/J (Ai9) mice were dosed with lipid nanoparticles at 0.5 mg/kg RNA intravenously. Fluorescent tdTomato protein was transcribed and translated in Ai9 mice upon Cre recombination, meaning circular RNAs have been delivered to and translated in tdTomato+ cells. After 48 hr, mice were euthanized and the spleens were harvested, processed into a single cell suspension, and stained with various fluorophore-conjugated antibodies for immunophenotyping via flow cytometry.
Ai9 mice injected with PBS represented background tdTomato fluorescence.
FIG. 45C illustrates the proportion of additional splenic immune cell populations expressing tdTomato with Lipids 10a-27 and 10a-26 (mean+std. dev., n=3), which also include NK cells (NKp46+, TCR-B−), classical monocytes (CD11b+, Ly-6G−, Ly-6C_hi), nonclassical monocytes (CD11b+, Ly-6G−, Ly-6C_lo), neutrophils (CD11b+, Ly-6G+), and dendritic cells (CD11c+, MHC-II+).
Ai9 mice (B6.Cg-Gt(ROSA)26Sortm9(CAG-tdTomato)Hze/J, female, 6-8 weeks, n=3 per group) were injected i.v. with 0.5 mg/kg Cre circRNA LNPs or PBS. Ai9 mice transcribe and translate the fluorescent reporter tdTomato upon Cre recombination; meaning cells which are tdTomato+ have successfully been transfected with Cre circRNA. After 48 hours, mice were euthanized and their spleens were collected and manually processed into single cell suspensions. The splenocytes were stained for dead cells (LiveDead Fixable Aqua, Thermo) and with anti-mouse antibodies (TCR-B chain, BV421, H57-597; CD45, BV711, 30-F11; CD11b, BV785, ICRF44; NKp46, AF647, 29A1.4; CD19, APC/750, 6D5; TruStain FcX, 93; all antibodies from Biolegend) at 1:200 ratio. Flow cytometry was performed using an Attune Nxt Flow Cytometer (Thermo).

In experiment [3] the test system is primary human T cells. The experiment is described as follows: LNP transfection of primary human activated T cells with FLuc circRNA with or without ApoE3. Format: cell-based. As to conditions: 4 independent donors. As for the experimental part: Primary human T cells from independent donors were stimulated with aCD3/aCD28 and allowed to proliferate for 6 days in the presence of human serum and IL-2. Then, 100,000 cells were plated in a 96 well plate and LNPs containing circRNA coding for Firefly Luciferase (FLuc) were added to the cells at 200 ng RNA/well with or without Apolipoprotein E3 (ApoE3). After 24-hour incubation, luminescence was quantified using the Bright-Glo Luciferase Assay System (Promega) according to manufacturer's instructions and background luminescence from cells not treated with LNPs was subtracted. […] (See Example 70 for LNP formulation procesure, e.g., for 10a-27 (5.7A), 10a-26 (5.7A), 10a-27 (4.5D), and 10a-26 (4.5D) LNPs.)

Molecules are shown by their SMILES. “Also recorded” adds a separate entry of the source.

Consider `CCCCCCCCC(CCCCCC)C(=O)OCCCCCCN(CCCCCCOC(=O)C(CCCCCC)CCCCCCCC)CCCn1ccnc1` (stereo not drawn) [Lipid 10a-26, ((3-(1H-imidazol-1-yl)propyl)azanediyl)bis(hexane-6,1-diyl) bis(2-hexyldecanoate)], for which the “ex vivo IVIS analysis of tissues, overall expression” value in experiment [1] (0.5 mg/kg RNA intravenously) is “increased overall expression”. Moreover, in experiment [1] (0.5 mg/kg RNA intravenously, six hours, compared to LNPs made with lipids 22-S14 and 93-S14), the whole-body total flux result is recorded as “increased whole-body total flux”. In addition, the “spleen to liver ratios” value in experiment [1] is listed as “maintaining the desired spleen to liver ratios”. Moreover, in experiment [2], the “delivery of circular RNAs to splenic immune cell subsets” value (“delivery of circular RNAs” for short) is reported as “effective at delivering circular RNAs to many splenic immune cell subsets”; the “proportion of splenic immune cells expressing tdTomato (transfection)” value was “significantly higher myeloid and T cell transfection”.

As to `CCCCCCCCC(CCCCCC)C(=O)OCCCCCCN(CCCCCCOC(=O)C(CCCCCC)CCCCCCCC)CCCn1ccnc1C` (stereo not drawn) [Lipid 10a-27, ((3-(2-methyl-1H-imidazol-1-yl)propyl)azanediyl)bis(hexane-6,1-diyl) bis(2-hexyldecanoate)], the Firefly luminescence result in experiment [3] is given as “generally produced higher luminescence”. In experiment [2], the “delivery of circular RNAs” value is on record as “effective at delivering circular RNAs to many splenic immune cell subsets”. Further, the “proportion of splenic immune cells expressing tdTomato (transfection)” value in experiment [2] (0.5 mg/kg) is “significantly higher myeloid and T cell transfection; also recorded: transfect significantly more splenic immune cells”.

`CCCCCCCCCOC(=O)CCCCCCCN(CCCCCCCC(=O)OC(CCCCCCCC)CCCCCCCC)CCCn1ccnc1` [Lipid 10a-53, heptadecan-9-yl 8-((3-(1H-imidazol-1-yl)propyl)(8-(nonyloxy)-8-oxooctyl)amino)octanoate]: the “spleen to liver ratios” value in experiment [1] is “maintaining the desired spleen to liver ratios”.

Take `CCCCCCCCCOC(=O)CCCCCCCN(CCCCCCCC(=O)OC(CCCCCCCC)CCCCCCCC)CCCn1ccnc1C` [Lipid 10a-54, heptadecan-9-yl 8-((3-(2-methyl-1H-imidazol-1-yl)propyl)(8-(nonyloxy)-8-oxooctyl)amino)octanoate]: the “spleen to liver ratios” value in experiment [1] is listed as “maintaining the desired spleen to liver ratios”.

As for `CCCCCCCCCOC(=O)CCCCCCCN(CCO)CCCCCCCC(=O)OC(CCCCCCCC)CCCCCCCC` [Lipid 10b-15], the “spleen to liver ratios” value in experiment [1] is reported as “maintaining the desired spleen to liver ratios”. In experiment [2], the “delivery of circular RNAs” value was “effective at delivering circular RNAs to many splenic immune cell subsets”.
